These results are taken from patent US7632972B2, “Compounds and methods for treatment of cancer and modulation of programmed cell death for melanoma and other cancer cells” (The Board of Trustees of the University of Illionis, priority 2003, dated 2009).

Where two headings read alike, the source gives them in different places.

One data set has as its system U-937 cell line. Put plainly: Death induction by amide library, MTS dye reduction. The data set is classed as cell-based, human. How it is done: Compounds were tested in a U937 cell assay as previously described by Hergenrother et al. (see Hergenrother 2003 and U.S. 60/516,566).
The ability of the 100 amides thus produced to induce death in cancer cells was assessed by an assay based on the reduction of the MTS (3-(4,5-dimethylthiazol-2-yl)-5-(3-carboxymethoxyphenyl)-2-(4-sulfophenyl)-2H-tetrazolium, inner salt) dye. This tetrazolium dye is rapidly converted to the formazan product by living cells, and therefore provides a sensitive readout of cell life or death that can be monitored at 490 nm.
Background: Formazan colour is commonly taken as a measure of viable cells.

The subject of data set [1] is U-937 cells. Put plainly: Analysis of mitochondria depolarization by flow cytometry (JC-9 dye). The data set is classed as cell-based, human. How it is done: Further experiments assessed whether the observed death from 12-D, 13-D, and 15-D was due to apoptosis or necrosis.
Analysis of Mitochondria Depolarization by Flow Cytometry: The depolarization of the mitochondrial membrane was measured by the fluorescence emitted by the JC-9 dye (Molecular Probes, Eugene Oreg.). 100 μM of 13-D or 10 μM etoposide in 1 μL of EtOH were added to cell culture flasks containing 50 mL of 10×10^6 U-937 cells/mL. […] 10 μg of the JC-9 dye was added to 1×10^6 cells in 1 mL and incubated at room temperature for 10 min. Cells were washed twice with PBS and resuspended in a final volume of 500 μL PBS. The fluorescence intensity of each cell was determined by flow cytometry at 525 nm (channel 1 green) and 675 nm (channel 4 red). 50,000 cells were analyzed in each experiment. The data was then analyzed using Summit Software (Cytomation, Fort Collins Colo.) and the number of cells within the upper left region, viable cells, was determined.
Apoptotic assays. To determine whether the observed death was due to apoptosis or necrosis, several apoptotic hallmarks were examined. Thus early stage (mitochondrial membrane depolarization), middle stage (caspase-3 like activation, PARP-1 cleavage) and late stage (chromatin condensation, phosphatidylserine exposure, membrane blebbing) biochemical events were monitored. The depolarization of mitochondrial membranes facilitates the release of pro-apoptotic proteins such as cytochrome c and AIF (apoptosis inducing factor) from the mitochondria into the cytosol. Several dyes, including JC-9, have been developed that provide a sensitive readout on this process. […] The release of pro-apoptotic stimuli from the mitochondria initiates a cascade of events that ultimately results in the activation of the “executioner” caspases, typically caspase-3 and caspase-7. The caspase-3-like activity of the cells can be monitored with peptidic substrates. […] PARP-1 cleavage. A final event in apoptosis is the exposure of phosphatidylserine on the outer leaflet of the cell membrane; this event allows for recognition of apoptotic cells by phagocytes, ultimately leading to the engulfment of the apoptotic cell and the recycling of the various cellular components.

In data set [2] the test system is U-937 cells. The experiment in a line: High-throughput cell death assay on library members (MTS/PMS). The data set is classed as cell-based, human. Particulars: library members at 100 μM, 24 hours. How it is done: A three-tiered system was devised to identify compounds that selectively induce apoptosis in cancer cells. First, all compounds were screened at 100 μM in a high-throughput manner for their ability to induce death in two cancer cell lines, HL-60 (leukemia) and U-937 (lymphoma).
Test compounds were transferred into the wells using a 96-pin transfer apparatus (V & P Scientific, San Diego Calif.) that transfers 0.2 μL of compound. The compounds were made up as 50 mM stock solutions in 100% EtOH, so one transfer gave a final concentration of 100 μM. Controls were performed in which only EtOH (containing no compound) was pin-transferred into wells containing cells. The cells were incubated with the compounds for 24 hours, and then cell death was quantitated.

A further data set can be described thus: in vitro. The data set is classed as cell-based, human. The conditions noted are these: human.
Data set [3] deals with etoposide induced apoptosis. The experiment in a line: Inhibition of etoposide induced apoptosis. The format is cell-based.
The next data set concerns UACC-62. Put plainly: Death induction in melanoma cell line. The format is cell-based, human. Particulars: Homo sapiens; Table 13, UACC-62 melanoma; read-out: UACC-62. How it is done: (§1) Given the interesting and somewhat unusual trait of G1 arrest, compounds x and y were tested for their ability to induce death in two melanoma cell lines: UACC-62 (human), and B16-F10 (mouse). […] Compounds x and y were also submitted for testing in the NCl 60-cell line assay. […] The triphenylamides (TPAs) induce apoptosis in these melanoma cell lines.

The next data set concerns B16-F10. Put plainly: Death induction in melanoma cell line. The conditions noted are these: Mus musculus, B16-F10; Table 13, B16F10 melanoma; read-out: B16F10. The format is cell-based, mouse. How it is done: as §1
In another data set the test system is HL-60 cells. Put plainly: Determination of IC50 values, cell death by MTS/PMS after 72 h. The conditions noted are these: Homo sapiens, HL-60, read-out: HL-60.
Data set [4] has as its system U-937 cells. Put plainly: cells. The format is cell-based, human. Particulars: Homo sapiens; Table 13, U-937.
The next data set relates to human bone marrow cells. The experiment in a line: Toxicity to bone marrow cells of a healthy donor, MTS bioreduction after 72 hours. The data set is classed as cell-based. The conditions noted are these: Bone marrow cell, Table 13, bone marrow cells of healthy donor. The text has this:
Specificity for cancer cells. The vast majority of anti-cancer drugs are toxic to all rapidly dividing cell types, often leading to deleterious side effects and a reduced therapeutic window. For instance, hematopoietic bone marrow is responsible for the production of red and white blood cells, and the anemia observed upon treatment with certain chemotherapy agents is in a large part due to the toxicity of the anti-cancer drugs on cells in the human bone marrow. Thus, to determine the relative effect of the triphenylamides on melanoma versus normal cells, cells derived from the human bone marrow of a healthy donor were used; measurement of the effect on healthy bone marrow cells can assist in assessing the toxicity of putative anti-cancer agents. (17-20) These cells were treated with increasing concentrations of the compounds shown in Table 13, and cell viability was evaluated after 72 hours using the MTS bioreduction assay. The data in Table 13 indicate that several of the triphenyl amides have selective toxicity to melanoma cells versus the human bone marrow cells.

[5] abbreviates: Homo sapiens, U-937, hit compounds of first generation library, read-out: IC50 Value-U-937 cells.
The mark [6] stands for this setting: hit compounds of first generation library, read-out: IC50 Value-U-937 cells.

Procedure for HL-60 cells: General Cell Culture Conditions: U-937 and HL-60 cell lines were grown in RPMI 1640 supplemented with 10% FBS and incubated at 37° C. in a 5% CO2, 95% air atmosphere and were split every two to three days as necessary.
Cells were then resuspended in RPMI 1640+10% FBS, counted using a hemocytometer and diluted so that 10,000 cells were seeded in to each well of a Corning 96-well flat bottom microtiter plate (Fisher, Chicago Ill.). Media was then added to bring the total volume of each well to 100 μL. Each compound was weighed and then diluted with EtOH to make a 100 mM stock solution. The compounds were added at 9 or more different concentration in 1 μL of EtOH. After a 72 h incubation (37° C. in a 5% CO2, 95% air atmosphere) cell death was quantitated by addition of 20 μL of the MTS/PMS CellTiter 96 Cell Proliferation Assay reagent (Promega, Madison Wis.) to each well. The plates were incubated at 37° C. for approximately 1 hour until the colored product formed and the absorbance was then measured at 490 nm in a Spectra Max Plus 384 plate reader (Molecular Devices, Sunnyvale Calif.). The IC50 was taken as the concentration that caused 50% cell death.

As for `COc1cccc(/C=C/C(=O)Nc2cc(OC)c(OC)c(OC)c2)c1`, in the data set with U-937 cell line (setting [5]), the IC50 came to 8 µM.

Regarding `COc1cc(/C=C/C(=O)NC[C@H](O)c2ccc(O)cc2)ccc1O` [Compound 15-D, N-[2-(R)-Hydroxy-2-(4-hydroxy-phenyl)-ethyl]-3-(4-hydroxy-3-methoxy-phenyl)-acrylamide], the “observed death due to apoptosis or necrosis” value in the data set on U-937 cells [1] is recorded as “induced some apoptosis, some necrosis”. Also, the “Induction of death in U-937 cells (percentages of cell death)” value (from here on “Induction … (percentages of cell death)”) in the data set on U-937 cells [2] came to 89%. In the data set “in vitro”, this compound showed an IC50 at 72 h of 109 µM.

As to `COc1ccc(/C=C/C(=O)NC23CC4CC(CC(C4)C2)C3)c2ccccc12`, in the data set on U-937 cell line (setting [5]), the IC50 turned out to be 7.1 µM.

Take `COc1ccc(CCNC(=O)CC(c2ccccc2)(c2ccccc2)c2ccccc2)cc1OC` [drawing 69, R1 = H, R2 = OCH3, R3 = OCH3]: the IC50 in the data set with U-937 cell line (setting [6]) was found to be 18.3 µM.

Take `COc1cc(/C=C/C(=O)NC[C@@H](O)c2ccccc2)ccc1O` (stereo in doubt) [Compound 12-D, 3-(4-Hydroxy-3-methoxy-phenyl)-N-(2-hydroxy-2-phenyl-ethyl)-acrylamide]: in the data set on U-937 cells [1], the “observed death due to apoptosis or necrosis” value is “induced some apoptosis, some necrosis”. The “Induction … (percentages of cell death)” value with U-937 cells [2] is reported as 82%. This compound also yielded an IC50 at 72 h in the data set “in vitro” of 61 µM.

As for `COc1cc(/C=C/C(=O)NC[C@@H](OC)c2ccc(O)cc2)ccc1O` [Compound 9-D, 3-(4-Hydroxy-3-(S)-methoxy-phenyl)-N-[2-(4-hydroxy-phenyl)-2-methoxy-ethyl]-acrylamide], the “activity in assays exploring inhibition of etoposide induced apoptosis” value in data set [3] is given as “Neither compound 1 nor any library members showed activity”. The “Induction … (percentages of cell death)” value with U-937 cells [2] is 20%. Besides, the IC50 at 72 h in the data set “in vitro” was found to be 273 µM.

Consider `CCCCCCCCCCCCCCCC(=O)N(C)C(C)C(O)c1ccccc1` (centres unmarked), for which the IC50 in the data set on U-937 cell line (Homo sapiens, U-937, read-out: IC50 Value-U-937 cells) came out at 3.1 µM.

Turning to `CC(=O)OC(CNC(=O)C(c1ccccc1)(c1ccccc1)c1ccccc1)c1ccccc1` (centres unmarked), the IC50 turned out to be 0.62 µM in the data set with UACC-62; 0.8 µM in the data set on B16-F10; 16.2 µM in the data set on HL-60 cells; 10.8 µM in the data set on U-937 cells [4]; 4 µM in the data set on human bone marrow cells.

With `COc1ccccc1CCNC(=O)CC(c1ccccc1)(c1ccccc1)c1ccccc1` [drawing 69, R1 = OCH3, R2 = H, R3 = H], in the data set on U-937 cell line (setting [6]), the IC50 turned out to be 15.7 µM.

As for `O=C(NCCc1ccccc1)C(c1ccccc1)(c1ccccc1)c1ccccc1` [drawing 68, R = H], the IC50 in the data set on U-937 cell line (setting [6]) came out at 8 µM.
